From the supplement of paper PMC9013687
± gives the standard deviation of the averaged measurements.

Key:
Danio rerio embryo [1] = system: Danio rerio embryo
Protocol: (§1)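 Zebrafish embryos (UFZ-OBI strain) were exposed from 2 hpf for 48 h (2 dpf) or 96 h (4 dpf) at 28 °C; spontaneous tail coiling was scored at 25 hpf. Morphological features from automated image analysis (FishInspector), heart rate and locomotor response were fitted with drc models. Quantal endpoints were dichotomised at 2.5 SD from controls and fitted with a log-logistic model; heart rate, pigmentation and STC were normalised to the replicate control mean. Betamethasone was tested as betamethasone dipropionate, diflorasone as diflorasone diacetate.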

Danio rerio embryo [2] = conditions: exposure time: 4 dpf
Protocol: as §1

Danio rerio embryo [3] = assay: EC50 Curvature_Increase
Protocol: as §1

Danio rerio embryo [4] = assay: EC50 Body length_Decrease
Protocol: as §1

Danio rerio embryo [5] = assay: EC50 Bladder size_Decrease; conditions: exposure time: 4 dpf
Protocol: as §1

Danio rerio embryo [6] = assay: EC50 Pericard size_Increase
Protocol: as §1

Danio rerio embryo [7] = assay: EC50 Yolk sac size_Increase; conditions: exposure time: 4 dpf
Protocol: as §1

Danio rerio embryo [8] = assay: EC50 Eye-jaw distance_Decrease; conditions: exposure time: 4 dpf
Protocol: as §1

Danio rerio embryo [9] = assay: EC50 Otolith-eye distance_Decrease; conditions: exposure time: 4 dpf
Protocol: as §1

Danio rerio embryo [10] = assay: EC10 LMR dark; higher = less potent; conditions: exposure time: 4 dpf
Protocol: as §1

Danio rerio embryo [11] = assay: EC20 LMR dark; higher = less potent; conditions: exposure time: 4 dpf
Protocol: as §1

Danio rerio embryo [12] = assay: EC20 Any effect; higher = less potent
Protocol: as §1

Danio rerio embryo [13] = assay: EC10 Any effect; higher = less potent
Protocol: as §1

Danio rerio embryo [14] = assay: EC20 Eye size_Decrease; higher = less potent
Protocol: as §1

Danio rerio embryo [15] = assay: EC10 Curvature_Increase; higher = less potent
Protocol: as §1

Danio rerio embryo [16] = assay: EC20 Curvature_Increase; higher = less potent
Protocol: as §1

Danio rerio embryo [17] = assay: EC10 Head size_Decrease; higher = less potent; conditions: exposure time: 2 dpf
Protocol: as §1

Danio rerio embryo [18] = assay: EC20 Body length_Decrease; higher = less potent
Protocol: as §1

Danio rerio embryo [19] = assay: EC10 Body length_Decrease; higher = less potent
Protocol: as §1

Danio rerio embryo [20] = assay: EC10 Bladder size_Decrease; higher = less potent; conditions: exposure time: 4 dpf
Protocol: as §1

Danio rerio embryo [21] = assay: EC20 Bladder size_Decrease; higher = less potent; conditions: exposure time: 4 dpf
Protocol: as §1

Danio rerio embryo [22] = assay: EC20 Yolk sac size_Increase; higher = less potent; conditions: exposure time: 4 dpf
Protocol: as §1

Danio rerio embryo [23] = assay: EC20 Pericard size_Increase; higher = less potent
Protocol: as §1

Danio rerio embryo [24] = assay: EC10 Yolk sac size_Increase; higher = less potent; conditions: exposure time: 4 dpf
Protocol: as §1

Danio rerio embryo [25] = assay: EC10 Pericard size_Increase; higher = less potent
Protocol: as §1

Danio rerio embryo [26] = assay: EC20 Eye-jaw distance_Decrease; higher = less potent; conditions: exposure time: 4 dpf
Protocol: as §1

Danio rerio embryo [27] = assay: EC10 Eye-jaw distance_Decrease; higher = less potent; conditions: exposure time: 4 dpf
Protocol: as §1

Danio rerio embryo [28] = assay: EC20 Otolith-eye distance_Decrease; higher = less potent; conditions: exposure time: 4 dpf
Protocol: as §1

Danio rerio embryo [29] = assay: EC10 Otolith-eye distance_Decrease; higher = less potent; conditions: exposure time: 4 dpf
Protocol: as §1

Danio rerio embryo [30] = assay: spontaneous tail coiling frequency (coils/min/embryo); higher = more spontaneous movement; conditions: 25 hpf
Protocol: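 Spontaneous tail coilings of zebrafish embryos exposed from 2 hpf were recorded at 24-25 hpf in 1-min videos and detected by a KNIME workflow from grey-value variance. Betamethasone was tested as the dipropionate, diflorasone as the diacetate.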

CC(C)(C)C(O)/C(=C/c1ccc(Cl)cc1Cl)n1cncn1 (stereo unspecified) [Diniconazole]
Conditions	EC10 Any effect [µM]	EC10 Body length Decrease [µM]	EC10 Curvature Increase [µM]	EC10 Pericard size Increase [µM]	EC20 Any effect [µM]	EC20 Body length Decrease [µM]	EC20 Curvature Increase [µM]	EC20 Eye size Decrease [µM]	EC20 Pericard size Increase [µM]	EC50 Any effect [µM]	EC50 Body length Decrease [µM]	EC50 Curvature Increase [µM]	EC50 LMR ligth decrease [µM]	EC50 Pericard size Increase [µM]	EC50 Pigmentation increase [µM]	spontaneous tail coiling frequency
Danio rerio embryo [1], exposure time: 2 dpf	–	–	–	–	–	–	–	–	–	3.77	–	–	–	–	–	–
Danio rerio embryo [1], exposure time: 4 dpf	–	–	–	–	–	–	–	–	–	2.61	–	–	2.31	–	11.8	–
Danio rerio embryo [3], exposure time: 2 dpf	–	–	–	–	–	–	–	–	–	–	–	7.07	–	–	–	–
Danio rerio embryo [3], exposure time: 4 dpf	–	–	–	–	–	–	–	–	–	–	–	6.35	–	–	–	–
Danio rerio embryo [4], exposure time: 2 dpf	–	–	–	–	–	–	–	–	–	–	8.59	–	–	–	–	–
Danio rerio embryo [4], exposure time: 4 dpf	–	–	–	–	–	–	–	–	–	–	6.97	–	–	–	–	–
Danio rerio embryo [6], exposure time: 2 dpf	–	–	–	–	–	–	–	–	–	–	–	–	–	5.78	–	–
Danio rerio embryo [6], exposure time: 4 dpf	–	–	–	–	–	–	–	–	–	–	–	–	–	3.83	–	–
Danio rerio embryo [12], exposure time: 2 dpf	–	–	–	–	3	–	–	–	–	–	–	–	–	–	–	–
Danio rerio embryo [12], exposure time: 4 dpf	–	–	–	–	1.89	–	–	–	–	–	–	–	–	–	–	–
Danio rerio embryo [13], exposure time: 2 dpf	2.63	–	–	–	–	–	–	–	–	–	–	–	–	–	–	–
Danio rerio embryo [13], exposure time: 4 dpf	1.56	–	–	–	–	–	–	–	–	–	–	–	–	–	–	–
Danio rerio embryo [14], exposure time: 2 dpf	–	–	–	–	–	–	–	6.78	–	–	–	–	–	–	–	–
Danio rerio embryo [14], exposure time: 4 dpf	–	–	–	–	–	–	–	3.61	–	–	–	–	–	–	–	–
Danio rerio embryo [15], exposure time: 2 dpf	–	–	3.94	–	–	–	–	–	–	–	–	–	–	–	–	–
Danio rerio embryo [15], exposure time: 4 dpf	–	–	2.76	–	–	–	–	–	–	–	–	–	–	–	–	–
Danio rerio embryo [16], exposure time: 2 dpf	–	–	–	–	–	–	4.89	–	–	–	–	–	–	–	–	–
Danio rerio embryo [16], exposure time: 4 dpf	–	–	–	–	–	–	3.75	–	–	–	–	–	–	–	–	–
Danio rerio embryo [18], exposure time: 2 dpf	–	–	–	–	–	7.36	–	–	–	–	–	–	–	–	–	–
Danio rerio embryo [18], exposure time: 4 dpf	–	–	–	–	–	6.12	–	–	–	–	–	–	–	–	–	–
Danio rerio embryo [19], exposure time: 2 dpf	–	6.73	–	–	–	–	–	–	–	–	–	–	–	–	–	–
Danio rerio embryo [19], exposure time: 4 dpf	–	5.67	–	–	–	–	–	–	–	–	–	–	–	–	–	–
Danio rerio embryo [23], exposure time: 2 dpf	–	–	–	–	–	–	–	–	2.51	–	–	–	–	–	–	–
Danio rerio embryo [23], exposure time: 4 dpf	–	–	–	–	–	–	–	–	3.81	–	–	–	–	–	–	–
Danio rerio embryo [25], exposure time: 2 dpf	–	–	–	1.54	–	–	–	–	–	–	–	–	–	–	–	–
Danio rerio embryo [25], exposure time: 4 dpf	–	–	–	3.8	–	–	–	–	–	–	–	–	–	–	–	–
Danio rerio embryo [30], 1.13 µM	–	–	–	–	–	–	–	–	–	–	–	–	–	–	–	1.89
Danio rerio embryo [30], 1.7 µM	–	–	–	–	–	–	–	–	–	–	–	–	–	–	–	2.58 ± 0.22
Danio rerio embryo [30], 2.55 µM	–	–	–	–	–	–	–	–	–	–	–	–	–	–	–	2.31 ± 0.11
Danio rerio embryo [30], 3.8 µM	–	–	–	–	–	–	–	–	–	–	–	–	–	–	–	2.05 ± 0.38
Danio rerio embryo [30], 5.75 µM	–	–	–	–	–	–	–	–	–	–	–	–	–	–	–	2.87
Danio rerio embryo [30], 7.66 µM	–	–	–	–	–	–	–	–	–	–	–	–	–	–	–	3.42 ± 0.86
Danio rerio embryo [30], 9.2 µM	–	–	–	–	–	–	–	–	–	–	–	–	–	–	–	3.35

Conditions	EC10 Bladder size Decrease [µM]	EC10 Eye-jaw distance Decrease [µM]	EC10 Head size Decrease [µM]	EC10 LMR dark [µM]	EC10 Otolith-eye distance Decrease [µM]	EC10 Yolk sac size Increase [µM]	EC20 Bladder size Decrease [µM]	EC20 Eye-jaw distance Decrease [µM]	EC20 LMR dark [µM]	EC20 Otolith-eye distance Decrease [µM]	EC20 Yolk sac size Increase [µM]	EC50 Bladder size Decrease [µM]	EC50 Eye-jaw distance Decrease [µM]	EC50 LMR dark [µM]	EC50 Otolith-eye distance Decrease [µM]	EC50 Yolk sac size Increase [µM]
Danio rerio embryo [2]	–	–	–	–	–	–	–	–	–	–	–	–	–	4.3	–	–
Danio rerio embryo [5]	–	–	–	–	–	–	–	–	–	–	–	2.35	–	–	–	–
Danio rerio embryo [7]	–	–	–	–	–	–	–	–	–	–	–	–	–	–	–	3.05
Danio rerio embryo [8]	–	–	–	–	–	–	–	–	–	–	–	–	2.91	–	–	–
Danio rerio embryo [9]	–	–	–	–	–	–	–	–	–	–	–	–	–	–	5.4	–
Danio rerio embryo [10]	–	–	–	2.25	–	–	–	–	–	–	–	–	–	–	–	–
Danio rerio embryo [11]	–	–	–	–	–	–	–	–	2.86	–	–	–	–	–	–	–
Danio rerio embryo [17]	–	–	3.64	–	–	–	–	–	–	–	–	–	–	–	–	–
Danio rerio embryo [20]	1.71	–	–	–	–	–	–	–	–	–	–	–	–	–	–	–
Danio rerio embryo [21]	–	–	–	–	–	–	1.92	–	–	–	–	–	–	–	–	–
Danio rerio embryo [22]	–	–	–	–	–	–	–	–	–	–	1.74	–	–	–	–	–
Danio rerio embryo [24]	–	–	–	–	–	1.26	–	–	–	–	–	–	–	–	–	–
Danio rerio embryo [26]	–	–	–	–	–	–	–	2.57	–	–	–	–	–	–	–	–
Danio rerio embryo [27]	–	2.39	–	–	–	–	–	–	–	–	–	–	–	–	–	–
Danio rerio embryo [28]	–	–	–	–	–	–	–	–	–	4.28	–	–	–	–	–	–
Danio rerio embryo [29]	–	–	–	–	3.74	–	–	–	–	–	–	–	–	–	–	–
